Experimental data as given in US11634447B2 (priority 2012, dated 2023).

What follows are molecules tested on bacterial strain LF82 binding to the glycoprotein BSA-(Mannose)3 (assay: Bacterial Binding Assay (BBA)). Conditions: read-out: Bacterial Binding Assay IC50, LF82/Luciferase strain binding to BSA-(Man)3 coated plates, luminescence.
Assay type: cell-based, Escherichia coli
Outline: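 Inhibition of LF82/luciferase E. coli adhesion is read as luminescence after washing off unbound cells. Compound and bacteria (10^7 per well) are co-incubated 40-75 min at room temperature on wells coated with 0.5-2 μg/mL BSA-(Man)3, with BSA-only wells as background; IC50 values derived.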

Structure (SMILES) | IC50 [nM]
CN(C)C(=O)Cn1c2cc(C#C[C@H]3O[C@H](CO)[C@@H](O)[C@H](O)[C@@H]3O)ccc2c2ccc(C#C[C@H]3O[C@H](CO)[C@@H](O)[C@H](O)[C@@H]3O)cc21 [Compound 181, 2-[2,7-bis[2-[(2R,3S,4R,5S,6R)-3,4,5-trihydroxy-6-(hydroxymethyl)tetrahydropyran-2-yl]ethynyl]carbazol-9-yl]-N,N-dimethyl-acetamide] | 10
OCCn1c2cc(C#C[C@H]3O[C@H](CO)[C@@H](O)[C@H](O)[C@@H]3O)ccc2c2ccc(C#C[C@H]3O[C@H](CO)[C@@H](O)[C@H](O)[C@@H]3O)cc21 [Compound 182, (2R,3 S,4R,5S,6R)-2-[2-[9-(2-Hydroxyethyl)-7-[2-[(2R,3 S,4R,5S,6R)-3,4,5-trihydroxy-6-(hydroxymethyl)tetrahydropyran-2-yl]ethynyl]carbazol-2-yl]ethynyl]-6-(hydroxymethyl)tetrahydropyran-3,4,5-triol] | 1.4
[2H]C([2H])([2H])OCCn1c2cc(C#C[C@H]3O[C@H](CO)[C@@H](O)[C@H](O)[C@@H]3O)ccc2c2ccc(C#C[C@H]3O[C@H](CO)[C@@H](O)[C@H](O)[C@@H]3O)cc21 [Compound 183, (2R,3S,4R,5S,6R)-2-(Hydroxymethyl)-6-[2-[9-[2-(trideuteriomethoxy)ethyl]-7-[2-[(2R,3S,4R,5S,6R)-3,4,5-trihydroxy-6-(hydroxymethyl)tetrahydropyran-2-yl]ethynyl]carbazol-2-yl]ethynyl]tetrahydropyran-3,4,5-triol] | 0.76
OC[C@H]1O[C@H](C#Cc2ccc3c4ccc(C#C[C@H]5O[C@H](CO)[C@@H](O)[C@H](O)[C@@H]5O)cc4n(C4CCOCC4)c3c2)[C@@H](O)[C@@H](O)[C@@H]1O [Compound 184, (2R,3S,4R,5S,6R)-2-(hydroxymethyl)-6-[2-[9-tetrahydropyran-4-yl-7-[2-[(2R,3S,4R,5S,6R)-3,4,5-trihydroxy-6-(hydroxymethyl)tetrahydropyran-2-yl]ethynyl]carbazol-2-yl]ethynyl]tetrahydropyran-3,4,5-triol] | 0.83
CC(C)(C)OC(=O)N1CCC(n2c3cc(C#C[C@H]4O[C@H](CO)[C@@H](O)[C@H](O)[C@@H]4O)ccc3c3ccc(C#C[C@H]4O[C@H](CO)[C@@H](O)[C@H](O)[C@@H]4O)cc32)CC1 [Compound 185, tert-butyl 4-[2,7-bis[2-[(2R,3S,4R,5S,6R)-3,4,5-trihydroxy-6-(hydroxymethyl)tetrahydropyran-2-yl]ethynyl]carbazol-9-yl]piperidine-1-carboxylate] | 1.1
CC1(Cn2c3cc(C#C[C@H]4O[C@H](CO)[C@@H](O)[C@H](O)[C@@H]4O)ccc3c3ccc(C#C[C@H]4O[C@H](CO)[C@@H](O)[C@H](O)[C@@H]4O)cc32)COC1 [Compound 186] | 0.28
CN1CCC(n2c3cc(C#C[C@H]4O[C@H](CO)[C@@H](O)[C@H](O)[C@@H]4O)ccc3c3ccc(C#C[C@H]4O[C@H](CO)[C@@H](O)[C@H](O)[C@@H]4O)cc32)CC1 [Compound 187, (2R,3S,4R,5S,6R)-2-(hydroxymethyl)-6-[2-[9-(1-methyl-4-piperidyl)-7-[2-[(2R,3S,4R,5S,6R)-3,4,5-trihydroxy-6-(hydroxymethyl)tetrahydropyran-2-yl]ethynyl]carbazol-2-yl]ethynyl]tetrahydropyran-3,4,5-triol] | 1
CN1CCC(Cn2c3cc(C#C[C@H]4O[C@H](CO)[C@@H](O)[C@H](O)[C@@H]4O)ccc3c3ccc(C#C[C@H]4O[C@H](CO)[C@@H](O)[C@H](O)[C@@H]4O)cc32)CC1 [Compound 188, (2R,3S,4R,5S,6R)-2-(hydroxymethyl)-6-[2-[9-[(1-methyl-4-piperidyl)methyl]-7-[2-[(2R,3S,4R,5S,6R)-3,4,5-trihydroxy-6-(hydroxymethyl)tetrahydropyran-2-yl]ethynyl]carbazol-2-yl]ethynyl]tetrahydropyran-3,4,5-triol] | 4.3
